Target: T1, human NET (Homo sapiens, UniProt P23975)
T1 construct: expressed in transfected cells
Test: Monoamine transporter reuptake inhibition, [3H]-MPP+ uptake (NET)
Type: cell-based
Conditions: HEK 293 stably expressing human NET; 0.02 μM [3H]-MPP+, 3 min; means of at least three independent experiments; NS = Not specific in the used concentration range; read-out: NET IC50 ± SD

T1 sequence (P23975 whole entry): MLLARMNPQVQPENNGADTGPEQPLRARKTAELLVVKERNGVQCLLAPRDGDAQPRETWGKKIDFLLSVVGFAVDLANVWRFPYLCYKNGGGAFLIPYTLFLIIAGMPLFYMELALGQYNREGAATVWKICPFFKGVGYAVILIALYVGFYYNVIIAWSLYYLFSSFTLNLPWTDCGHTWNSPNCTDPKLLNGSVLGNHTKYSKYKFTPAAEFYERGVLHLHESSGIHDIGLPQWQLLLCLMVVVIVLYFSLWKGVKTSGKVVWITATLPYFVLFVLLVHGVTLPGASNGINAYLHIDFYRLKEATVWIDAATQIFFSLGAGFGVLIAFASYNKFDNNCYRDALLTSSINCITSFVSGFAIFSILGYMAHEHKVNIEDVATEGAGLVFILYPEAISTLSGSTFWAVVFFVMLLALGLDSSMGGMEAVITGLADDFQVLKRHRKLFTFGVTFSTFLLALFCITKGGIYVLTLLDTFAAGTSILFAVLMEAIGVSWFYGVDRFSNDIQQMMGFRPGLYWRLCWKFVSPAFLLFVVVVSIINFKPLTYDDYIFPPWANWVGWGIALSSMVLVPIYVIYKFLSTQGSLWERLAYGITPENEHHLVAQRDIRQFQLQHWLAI

Row | SMILES | IC50 [µM]
1 | [O-][S@+](Cc1cncs1)[C@@H](c1ccccc1)c1cccc(Br)c1 [Compound 1_2] | 148 ± 68.4
2 | [O-][S@@+](Cc1cncs1)[C@@H](c1ccccc1)c1cccc(Br)c1 (single isomer, unassigned) [Compound 1_1] | 11.7 ± 7.3
3 | [O-][S@+](Cc1cncs1)[C@H](c1ccccc1)c1cccc(Br)c1 [Compound 2_2] | 13.9 ± 15.9
4 | [O-][S+](Cc1cncs1)C(c1ccccc1)c1cccc(Br)c1 (mixture of isomers) [(R), 5-((((3-bromophenyl)(phenyl)methyl)sulfinyl)methyl)thiazole] | 17.2 ± 4.5

Source: US12612374B2, “Thiazole and diphenyl substituted sulfoxides for use in improving cognition functions and against addictions to substances” (Cogmotiv FlexCo, priority 2019, dated 2026)
